# Several values for one entry are separate records, joined by “and”; a condition that tells them apart may be missing. Equal values may be shown once. Inconclusive results and toxic doses are left out.
# System: CD2F1 mice, L1210 leukemia ip, survival T/C
# Assay: NCI In Vivo Anticancer Drug Screen. Data for tumor model L1210 Leukemia (intraperitoneal) in CD2F1 (CDF1) mice
# Conditions: higher = longer survival
# Summary of the method: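 Each value reflects a quotient of treated over vehicle control outcomes in mice with a transplanted tumor.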
# [1] = endpoint: median survival time, dose: 100.0 mg/kg/injection, schedule: Q01DX009 (ip), vehicle: saline with Tween-80
# [2] = endpoint: mean survival time, dose: 100.0 mg/kg/injection, schedule: Q04DX003 (ip), vehicle: saline with Tween-80
# [3] = endpoint: mean survival time, dose: 100.0 mg/kg/injection, schedule: Q01DX009 (ip), vehicle: saline with Tween-80
# [4] = endpoint: mean survival time, dose: 200.0 mg/kg/injection, schedule: Q04DX003 (ip), vehicle: saline with Tween-80
# [5] = endpoint: mean survival time, dose: 400.0 mg/kg/injection, schedule: Q04DX003 (ip), vehicle: saline with Tween-80
smiles,measurement,setting,value
CN(C)N=Nc1ccc(C(N)=O)cc1,T/C,"endpoint: mean survival time, dose: 18.75 mg/kg/injection, schedule: Q01DX009 (ip), vehicle: Klucel (hydroxypropylcellulose) (HPC)",112 % of control
same,T/C,"endpoint: mean survival time, dose: 150.0 mg/kg/injection, schedule: Q01DX009 (ip), vehicle: Klucel (hydroxypropylcellulose) (HPC)",109 % of control
same,T/C,"endpoint: median survival time, dose: 12.5 mg/kg/injection, schedule: Q01DX005 (ip), vehicle: saline with Tween-80",105 % of control
same,T/C,"endpoint: median survival time, dose: 25.0 mg/kg/injection, schedule: Q01DX005 (ip), vehicle: saline with Tween-80",113 % of control
same,T/C,"endpoint: median survival time, dose: 36.0 mg/kg/injection, schedule: Q01DX005 (ip), vehicle: saline with Tween-80",123 % of control and 110 % of control
same,T/C,"endpoint: median survival time, dose: 36.0 mg/kg/injection, schedule: Q01DX009 (ip), vehicle: saline with Tween-80",116 % of control
same,T/C,"endpoint: median survival time, dose: 60.0 mg/kg/injection, schedule: Q01DX005 (ip), vehicle: saline with Tween-80",113 % of control
same,T/C,[1],166 % of control
same,T/C,"endpoint: median survival time, dose: 167.0 mg/kg/injection, schedule: Q01DX005 (ip), vehicle: saline with Tween-80",157 % of control
same,T/C,"endpoint: median survival time, dose: 167.0 mg/kg/injection, schedule: Q01DX009 (ip), vehicle: saline with Tween-80",176 % of control
same,T/C,"endpoint: median survival time, dose: 278.0 mg/kg/injection, schedule: Q01DX005 (ip), vehicle: saline with Tween-80",96 % of control
same,T/C,"endpoint: median survival time, dose: 278.0 mg/kg/injection, schedule: Q01DX009 (ip), vehicle: saline with Tween-80",98 % of control
NNc1ncn[nH]1,T/C,"endpoint: mean survival time, dose: 25.0 mg/kg/injection, schedule: Q01DX001 (ip), vehicle: saline with Tween-80",98 % of control
same,T/C,"endpoint: mean survival time, dose: 50.0 mg/kg/injection, schedule: Q01DX001 (ip), vehicle: saline with Tween-80",101 % of control
CN(C)CC1CCCCC1OC(=O)c1ccccc1 (stereo not drawn),T/C,"endpoint: mean survival time, dose: 25.0 mg/kg/injection, schedule: Q04DX003 (ip), vehicle: saline with Tween-80",93 % of control
same,T/C,"endpoint: mean survival time, dose: 50.0 mg/kg/injection, schedule: Q04DX003 (ip), vehicle: saline with Tween-80",97 % of control
same,T/C,[2],97 % of control
same,T/C,"endpoint: mean survival time, dose: 100.0 mg/kg/injection, schedule: Q04DX003 (ip), vehicle: water",96 % of control
CC(=O)OCCN1CCN(CC/C=C2\c3ccccc3Sc3ccc(Cl)cc32)CC1,T/C,"endpoint: mean survival time, dose: 3.13 mg/kg/injection, schedule: Q01DX009 (ip), vehicle: saline",100 % of control
same,T/C,"endpoint: mean survival time, dose: 6.25 mg/kg/injection, schedule: Q01DX009 (ip), vehicle: saline",116 % of control and 105 % of control
same,T/C,"endpoint: mean survival time, dose: 6.25 mg/kg/injection, schedule: Q04DX003 (ip), vehicle: saline",98 % of control
same,T/C,"endpoint: mean survival time, dose: 12.5 mg/kg/injection, schedule: Q01DX009 (ip), vehicle: saline",117 % of control and 123 % of control
same,T/C,"endpoint: mean survival time, dose: 12.5 mg/kg/injection, schedule: Q04DX003 (ip), vehicle: saline",89 % of control
same,T/C,"endpoint: mean survival time, dose: 25.0 mg/kg/injection, schedule: Q01DX009 (ip), vehicle: saline",117 % of control
same,T/C,"endpoint: mean survival time, dose: 25.0 mg/kg/injection, schedule: Q04DX003 (ip), vehicle: saline",98 % of control and 111 % of control
same,T/C,"endpoint: mean survival time, dose: 50.0 mg/kg/injection, schedule: Q04DX003 (ip), vehicle: saline",101 % of control
CCC[S][Pb]([c]1ccccc1)([c]1ccccc1)[c]1ccccc1,T/C,"endpoint: mean survival time, dose: 10.0 mg/kg/injection, schedule: Q01DX001 (ip), vehicle: Klucel (hydroxypropylcellulose) (HPC)",98 % of control
same,T/C,"endpoint: mean survival time, dose: 20.0 mg/kg/injection, schedule: Q01DX001 (ip), vehicle: Klucel (hydroxypropylcellulose) (HPC)",101 % of control
same,T/C,"endpoint: mean survival time, dose: 40.0 mg/kg/injection, schedule: Q01DX001 (ip), vehicle: Klucel (hydroxypropylcellulose) (HPC)",104 % of control
O=c1c2ncn(C3CC(O)C(O)C(CO)O3)c2ncn1C1CC(O)C(O)C(CO)O1 (stereo not drawn),T/C,"endpoint: mean survival time, dose: 12.5 mg/kg/injection, schedule: Q01DX005 (ip), vehicle: water",108 % of control
same,T/C,"endpoint: mean survival time, dose: 25.0 mg/kg/injection, schedule: Q01DX005 (ip), vehicle: water",97 % of control
same,T/C,"endpoint: mean survival time, dose: 50.0 mg/kg/injection, schedule: Q01DX005 (ip), vehicle: water",100 % of control
same,T/C,"endpoint: mean survival time, dose: 100.0 mg/kg/injection, schedule: Q01DX005 (ip), vehicle: water",97 % of control
same,T/C,"endpoint: mean survival time, dose: 200.0 mg/kg/injection, schedule: Q01DX005 (ip), vehicle: water",97 % of control
O=C(COc1ccc(Cl)cc1C(=O)O)NCc1cccc(NC(=O)Nc2cccc(S(=O)(=O)F)c2)c1,T/C,"endpoint: mean survival time, dose: 100.0 mg/kg/injection, schedule: Q01DX001 (ip), vehicle: saline with Tween-80",91 % of control
same,T/C,"endpoint: mean survival time, dose: 200.0 mg/kg/injection, schedule: Q01DX001 (ip), vehicle: saline with Tween-80",93 % of control
same,T/C,"endpoint: mean survival time, dose: 400.0 mg/kg/injection, schedule: Q01DX001 (ip), vehicle: saline with Tween-80",88 % of control
COc1ccc(CC(C)NC(=O)c2ccc(OC)c(OC)c2)cc1OC (stereo not drawn),T/C,"endpoint: mean survival time, dose: 12.5 mg/kg/injection, schedule: Q01DX009 (ip), vehicle: other",105 % of control
same,T/C,"endpoint: mean survival time, dose: 25.0 mg/kg/injection, schedule: Q01DX009 (ip), vehicle: other",94 % of control
same,T/C,"endpoint: mean survival time, dose: 50.0 mg/kg/injection, schedule: Q01DX009 (ip), vehicle: other",96 % of control
same,T/C,"endpoint: mean survival time, dose: 100.0 mg/kg/injection, schedule: Q01DX009 (ip), vehicle: other",93 % of control
same,T/C,"endpoint: mean survival time, dose: 200.0 mg/kg/injection, schedule: Q01DX009 (ip), vehicle: other",94 % of control
C[Si](C)(C)NP(=O)(Oc1ccc([N+](=O)[O-])cc1)Oc1ccc([N+](=O)[O-])cc1,T/C,"endpoint: mean survival time, dose: 15.6 mg/kg/injection, schedule: Q01DX001 (ip), vehicle: other",110 % of control
same,T/C,"endpoint: mean survival time, dose: 31.3 mg/kg/injection, schedule: Q01DX001 (ip), vehicle: other",97 % of control
same,T/C,"endpoint: mean survival time, dose: 62.5 mg/kg/injection, schedule: Q01DX001 (ip), vehicle: other",102 % of control and 108 % of control
same,T/C,"endpoint: mean survival time, dose: 125.0 mg/kg/injection, schedule: Q01DX001 (ip), vehicle: other",87 % of control and 94 % of control
CCCCn1cnc2c(=S)nc[nH]c21,T/C,"endpoint: mean survival time, dose: 32.0 mg/kg/injection, schedule: Q01DX009 (ip), vehicle: saline",118 % of control and 105 % of control
same,T/C,"endpoint: mean survival time, dose: 64.0 mg/kg/injection, schedule: Q01DX009 (ip), vehicle: saline",112 % of control and 115 % of control
same,T/C,"endpoint: mean survival time, dose: 100.0 mg/kg/injection, schedule: Q01DX007 (ip), vehicle: saline",113 % of control
same,T/C,"endpoint: mean survival time, dose: 100.0 mg/kg/injection, schedule: Q03DX003 (ip), vehicle: saline",102 % of control
same,T/C,"endpoint: mean survival time, dose: 100.0 mg/kg/injection, schedule: Q04DX003 (ip), vehicle: saline",97 % of control
same,T/C,"endpoint: mean survival time, dose: 128.0 mg/kg/injection, schedule: Q01DX009 (ip), vehicle: saline",118 % of control
same,T/C,"endpoint: mean survival time, dose: 200.0 mg/kg/injection, schedule: Q01DX007 (ip), vehicle: saline",162 % of control
same,T/C,"endpoint: mean survival time, dose: 200.0 mg/kg/injection, schedule: Q01DX009 (ip), vehicle: saline",165 % of control
same,T/C,"endpoint: mean survival time, dose: 200.0 mg/kg/injection, schedule: Q03DX003 (ip), vehicle: saline",122 % of control
same,T/C,"endpoint: mean survival time, dose: 200.0 mg/kg/injection, schedule: Q04DX003 (ip), vehicle: saline",118 % of control
same,T/C,"endpoint: mean survival time, dose: 256.0 mg/kg/injection, schedule: Q01DX009 (ip), vehicle: saline",153 % of control and 169 % of control
same,T/C,"endpoint: mean survival time, dose: 400.0 mg/kg/injection, schedule: Q01DX007 (ip), vehicle: saline",115 % of control
same,T/C,"endpoint: mean survival time, dose: 400.0 mg/kg/injection, schedule: Q01DX009 (ip), vehicle: saline",102 % of control
same,T/C,"endpoint: mean survival time, dose: 400.0 mg/kg/injection, schedule: Q03DX003 (ip), vehicle: saline",168 % of control
same,T/C,"endpoint: mean survival time, dose: 400.0 mg/kg/injection, schedule: Q04DX003 (ip), vehicle: saline",163 % of control
same,T/C,"endpoint: median survival time, dose: 25.0 mg/kg/injection, schedule: Q01DX009 (ip), vehicle: saline with Tween-80",124 % of control and 107 % of control
same,T/C,"endpoint: median survival time, dose: 50.0 mg/kg/injection, schedule: Q01DX009 (ip), vehicle: saline with Tween-80",122 % of control
same,T/C,[1],164 % of control
same,T/C,"endpoint: median survival time, dose: 200.0 mg/kg/injection, schedule: Q01DX009 (ip), vehicle: saline with Tween-80",154 % of control and 164 % of control
same,T/C,"endpoint: median survival time, dose: 400.0 mg/kg/injection, schedule: Q01DX009 (ip), vehicle: saline with Tween-80",122 % of control
O=c1c2cc([N+](=O)[O-])cc3c2-c2c4c(cc([N+](=O)[O-])cc14)c(O)c1cc([N+](=O)[O-])cc(c3=O)c21,T/C,[3],103 % of control
same,T/C,"endpoint: mean survival time, dose: 200.0 mg/kg/injection, schedule: Q01DX009 (ip), vehicle: saline with Tween-80",117 % of control
same,T/C,"endpoint: mean survival time, dose: 400.0 mg/kg/injection, schedule: Q01DX009 (ip), vehicle: saline with Tween-80",113 % of control
CC(CC(=O)O)c1ccc(F)cc1 (stereo not drawn),T/C,[2],101 % of control
same,T/C,[4],100 % of control
same,T/C,[5],95 % of control
CCCCCCCCC[n+]1ccc(C(N)=O)cc1,T/C,"endpoint: mean survival time, dose: 25.0 mg/kg/injection, schedule: Q01DX009 (ip), vehicle: saline with Tween-80",103 % of control
same,T/C,"endpoint: mean survival time, dose: 50.0 mg/kg/injection, schedule: Q01DX009 (ip), vehicle: saline with Tween-80",95 % of control
same,T/C,[3],95 % of control
Cc1cc(NC(=O)SCCOC(=O)COc2ccc(Cl)cc2)ccc1Cl,T/C,[2],91 % of control
same,T/C,[4],91 % of control
same,T/C,[5],89 % of control

# Reference: PubChem BioAssay AID256 (DTP/NCI, 2004)
